In US12447153B2, “HER2 mutation inhibitors” (Array BioPharma Inc., priority 2021, dated 2025):

Assays:
[1] = target: ErbB2 with Exon 20 YVMA insertion (HER2-YVMA) (Homo sapiens (Human), UniProt P04626, INS775YVMA); assay: Cellular Phosphorylation Assay, Assay 4 (constitutive ErbB2 phosphorylation, NIH 3T3 cells); assay type: cell-based
ErbB2 WT = ErbB2 WT (Homo sapiens (Human), UniProt P04626); assay: ErbB Enzyme Assay (HTRF KinEASE-TK), Assay 2; assay type: biochemical
EGFR = EGFR (Homo sapiens (Human), UniProt P00533); assay: ErbB Enzyme Assay (HTRF KinEASE-TK), Assay 3; assay type: biochemical
EGFR wild type (EGFR WT) = EGFR wild type (EGFR WT) (Homo sapiens (Human), UniProt P00533); assay: Cellular Phosphorylation Assay, Assay 5 (EGF-stimulated EGFR phosphorylation, NIH 3T3 cells); assay type: cell-based
[2] = EGF-stimulated EGFR WT phosphorylation
[3] = cellular ErbB2 YVMA phosphorylation
[4] = cellular EGFR WT phosphorylation, EGF-stimulated

Sequence of ErbB2 with Exon 20 YVMA insertion (HER2-YVMA) (P04626 other isoform, or with tags, fused parts or gaps ins YVMA behind 775): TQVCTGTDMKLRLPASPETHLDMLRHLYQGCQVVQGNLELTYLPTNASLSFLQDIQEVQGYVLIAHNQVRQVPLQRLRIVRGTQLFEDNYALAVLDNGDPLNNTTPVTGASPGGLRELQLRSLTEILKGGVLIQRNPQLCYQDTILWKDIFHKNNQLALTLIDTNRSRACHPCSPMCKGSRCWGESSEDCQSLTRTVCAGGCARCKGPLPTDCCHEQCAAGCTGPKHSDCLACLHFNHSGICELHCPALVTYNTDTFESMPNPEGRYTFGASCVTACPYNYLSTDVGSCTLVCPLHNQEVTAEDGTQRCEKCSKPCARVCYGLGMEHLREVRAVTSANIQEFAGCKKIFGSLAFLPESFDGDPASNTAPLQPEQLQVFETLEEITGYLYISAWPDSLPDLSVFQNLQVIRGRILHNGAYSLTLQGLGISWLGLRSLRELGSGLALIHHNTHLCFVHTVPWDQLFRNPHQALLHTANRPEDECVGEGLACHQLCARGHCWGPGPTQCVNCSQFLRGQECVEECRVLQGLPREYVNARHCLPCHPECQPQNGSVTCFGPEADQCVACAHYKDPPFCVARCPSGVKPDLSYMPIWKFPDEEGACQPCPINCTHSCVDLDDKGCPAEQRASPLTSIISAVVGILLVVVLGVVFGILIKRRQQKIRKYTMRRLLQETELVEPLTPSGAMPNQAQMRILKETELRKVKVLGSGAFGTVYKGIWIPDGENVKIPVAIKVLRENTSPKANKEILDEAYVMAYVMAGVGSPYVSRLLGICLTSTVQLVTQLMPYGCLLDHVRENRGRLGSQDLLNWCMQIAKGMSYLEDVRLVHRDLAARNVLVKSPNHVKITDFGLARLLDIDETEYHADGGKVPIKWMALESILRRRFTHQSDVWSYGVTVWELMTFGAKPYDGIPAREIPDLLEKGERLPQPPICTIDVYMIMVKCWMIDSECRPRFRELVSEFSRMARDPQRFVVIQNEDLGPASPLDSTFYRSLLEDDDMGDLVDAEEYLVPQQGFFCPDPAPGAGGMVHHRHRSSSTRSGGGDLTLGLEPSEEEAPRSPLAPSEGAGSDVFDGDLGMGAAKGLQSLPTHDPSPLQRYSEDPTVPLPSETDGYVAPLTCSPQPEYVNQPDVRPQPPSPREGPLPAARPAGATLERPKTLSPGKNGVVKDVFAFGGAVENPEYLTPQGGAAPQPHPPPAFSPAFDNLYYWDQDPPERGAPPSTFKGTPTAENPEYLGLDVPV
Sequence of ErbB2 WT (P04626 23-1255): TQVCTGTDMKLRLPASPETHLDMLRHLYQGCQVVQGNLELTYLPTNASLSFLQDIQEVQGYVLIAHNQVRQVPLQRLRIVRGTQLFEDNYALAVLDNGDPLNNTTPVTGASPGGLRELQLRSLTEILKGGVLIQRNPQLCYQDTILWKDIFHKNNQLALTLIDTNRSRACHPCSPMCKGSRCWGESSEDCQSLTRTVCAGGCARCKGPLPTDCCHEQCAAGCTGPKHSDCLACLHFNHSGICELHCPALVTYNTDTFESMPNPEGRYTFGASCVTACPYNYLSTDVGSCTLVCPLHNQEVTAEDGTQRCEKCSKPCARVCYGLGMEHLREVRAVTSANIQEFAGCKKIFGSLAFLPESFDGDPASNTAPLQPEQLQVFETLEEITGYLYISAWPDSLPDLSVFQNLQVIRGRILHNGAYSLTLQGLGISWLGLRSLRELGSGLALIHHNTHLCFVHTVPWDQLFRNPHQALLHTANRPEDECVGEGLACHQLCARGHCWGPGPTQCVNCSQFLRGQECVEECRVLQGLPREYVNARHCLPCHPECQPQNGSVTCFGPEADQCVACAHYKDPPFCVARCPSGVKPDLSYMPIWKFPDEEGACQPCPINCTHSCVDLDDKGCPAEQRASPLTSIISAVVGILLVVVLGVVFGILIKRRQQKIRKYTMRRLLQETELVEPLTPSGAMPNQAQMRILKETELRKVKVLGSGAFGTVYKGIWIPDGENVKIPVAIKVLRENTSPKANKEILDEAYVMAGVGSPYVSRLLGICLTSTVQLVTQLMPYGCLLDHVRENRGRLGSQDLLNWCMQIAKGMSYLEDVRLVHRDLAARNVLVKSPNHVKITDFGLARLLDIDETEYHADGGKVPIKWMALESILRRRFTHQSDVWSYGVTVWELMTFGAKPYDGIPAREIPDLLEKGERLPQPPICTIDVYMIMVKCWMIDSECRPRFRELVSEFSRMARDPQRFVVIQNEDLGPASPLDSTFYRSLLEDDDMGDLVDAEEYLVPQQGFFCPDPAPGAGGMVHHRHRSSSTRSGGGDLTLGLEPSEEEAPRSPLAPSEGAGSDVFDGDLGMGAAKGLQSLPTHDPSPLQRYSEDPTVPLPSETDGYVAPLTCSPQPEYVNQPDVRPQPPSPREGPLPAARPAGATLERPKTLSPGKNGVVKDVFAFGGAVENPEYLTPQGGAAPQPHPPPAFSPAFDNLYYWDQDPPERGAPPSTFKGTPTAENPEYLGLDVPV
Sequence of EGFR wild type (EGFR WT) (P00533 25-1210): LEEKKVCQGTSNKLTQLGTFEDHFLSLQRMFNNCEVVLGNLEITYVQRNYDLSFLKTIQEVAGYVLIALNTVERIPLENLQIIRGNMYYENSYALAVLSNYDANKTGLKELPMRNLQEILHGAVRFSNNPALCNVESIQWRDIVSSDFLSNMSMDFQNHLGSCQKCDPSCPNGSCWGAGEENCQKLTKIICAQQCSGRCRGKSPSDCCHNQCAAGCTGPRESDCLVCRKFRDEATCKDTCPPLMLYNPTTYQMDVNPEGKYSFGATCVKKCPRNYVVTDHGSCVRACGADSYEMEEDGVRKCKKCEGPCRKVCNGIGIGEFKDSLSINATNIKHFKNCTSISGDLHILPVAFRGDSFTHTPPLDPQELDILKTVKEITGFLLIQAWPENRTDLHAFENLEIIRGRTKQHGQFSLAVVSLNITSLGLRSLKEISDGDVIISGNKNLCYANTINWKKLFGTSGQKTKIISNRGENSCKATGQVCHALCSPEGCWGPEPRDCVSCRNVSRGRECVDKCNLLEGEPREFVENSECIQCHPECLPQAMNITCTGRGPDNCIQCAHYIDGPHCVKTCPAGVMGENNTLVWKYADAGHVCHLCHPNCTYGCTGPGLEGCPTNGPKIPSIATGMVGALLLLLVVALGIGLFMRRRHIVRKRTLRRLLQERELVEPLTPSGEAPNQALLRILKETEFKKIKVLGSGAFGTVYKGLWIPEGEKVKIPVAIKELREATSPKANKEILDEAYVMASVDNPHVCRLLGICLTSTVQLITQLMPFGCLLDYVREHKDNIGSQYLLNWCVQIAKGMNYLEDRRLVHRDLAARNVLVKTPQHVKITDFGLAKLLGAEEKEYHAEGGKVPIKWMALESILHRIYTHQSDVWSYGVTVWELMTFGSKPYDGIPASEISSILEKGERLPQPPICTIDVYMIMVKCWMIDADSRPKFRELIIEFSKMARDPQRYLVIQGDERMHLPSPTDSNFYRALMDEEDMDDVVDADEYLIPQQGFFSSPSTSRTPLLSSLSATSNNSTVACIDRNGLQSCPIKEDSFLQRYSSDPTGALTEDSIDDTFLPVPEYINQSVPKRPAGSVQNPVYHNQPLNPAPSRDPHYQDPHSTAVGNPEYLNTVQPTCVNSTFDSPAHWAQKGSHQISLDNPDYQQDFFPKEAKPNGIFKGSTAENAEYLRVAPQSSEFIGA
Sequence of EGFR (P00533 25-1210): as above

SMILES | IC50 ([1]; ErbB2 YVMA phosphorylation) | IC50 (ErbB2 WT; ErbB2 WT enzyme) | IC50 (EGFR; EGFR enzyme) | IC50 (EGFR wild type (EGFR WT); [2]) | IC50 [1, 3] | IC50 (ErbB2 WT; ErbB2 WT enzyme assay) | IC50 (EGFR; EGFR enzyme assay) | IC50 (EGFR wild type (EGFR WT); [4])
C=CC(=O)N1[C@@H](C)CN(c2ccc3ncnc(Nc4ccc(Oc5ccc6c(c5)ncn6C)c(C)c4F)c3n2)C[C@@H]1C [Example 256] |  |  |  |  | 0.0669 µM | 0.0572 µM | ≥ 10 µM | ≥ 5 µM
C=CC(=O)N1[C@@H]2CCC[C@H]1[C@@H](c1ccc3ncnc(Nc4cc(C)c(Oc5ccn6ncnc6c5)cc4F)c3n1)C2 [Example 414] |  |  |  |  | 0.0576 µM | 0.0301 µM | 0.866 µM | ≥ 5 µM
C=CC(=O)N1C[C@@H](c2ccc3ncnc(Nc4cc(C)c(Oc5ccc6c(c5)ncn6C)cc4F)c3n2)CC[C@H]1C [Example 170, 1-((2R,5S)-5-(4-((2-fluoro-5-methyl-4-((1-methyl-1H-benzo[d]imidazol-5-yl)oxy)phenyl)amino)pyrido[3,2-d]pyrimidin-6-yl)-2-methylpiperidin-1-yl)prop-2-en-1-one] | 0.0449 µM | 0.261 µM | ≥ 10 µM | ≥ 5 µM |  |  |  | 
C=CC(=O)N1[C@@H]2CC[C@H]1CC(c1ccc3ncnc(Nc4cc(C)c(Oc5ccn6ncnc6c5)cc4F)c3n1)C2 (stereo partly drawn) [Example 194, 1-((1R,5S)-3-(4-((4-([1,2,4]triazolo[1,5-a]pyridin-7-yloxy)-2-fluoro-5-methylphenyl)amino)pyrido[3,2-d]pyrimidin-6-yl)-8-azabicyclo[3.2.1]octan-8-yl)prop-2-en-1-one] | 0.0339 µM | 0.171 µM | 5.8 µM | 2.78 µM |  |  |  | 
C=CC(=O)N1C[C@@H]2CC[C@H]1CN2c1ccc2ncnc(Nc3cc(Cl)c(Oc4ccn5ncnc5c4)cc3F)c2n1 [Example 321] |  |  |  |  | 0.0038 µM | 0.0046 µM | 0.0864 µM | 0.124 µM
C=CC(=O)N1CCN(c2ccc3ncnc(Nc4ccc(Oc5ccc6scnc6c5)c(C)c4F)c3n2)CC1(C)C [Example 243, 1-(4-(4-((4-(benzo[d]thiazol-5-yloxy)-2-fluoro-3-methylphenyl)amino)pyrido[3,2-d]pyrimidin-6-yl)-2,2-dimethylpiperazin-1-yl)prop-2-en-1-one] | 0.0502 µM | 0.338 µM | 1.21 µM | 0.665 µM |  |  |  | 
C=CC(=O)N1[C@@H]2CC[C@H]1C[C@@H](c1ccc3ncnc(Nc4cc(C)c(Oc5cnc6c(c5)ncn6C)cc4F)c3n1)C2 [Example 226, 1-((1R,3r,5S)-3-(4-((2-fluoro-5-methyl-4-((3-methyl-3H-imidazo[4,5-b]pyridin-6-yl)oxy)phenyl)amino)pyrido[3,2-d]pyrimidin-6-yl)-8-azabicyclo[3.2.1]octan-8-yl)prop-2-en-1-one] | 0.0375 µM | 0.31 µM | ≥ 10 µM | ≥ 5 µM |  |  |  | 
C=CC(=O)N1[C@@H]2CC[C@H]1C[C@@H](c1ccc3ncnc(Nc4cc(C)c(Oc5ccn6ncnc6c5)cc4F)c3n1)C2 [Example 206, 1-((1R,3r,5S)-3-(4-((4-([1,2,4]triazolo[1,5-a]pyridin-7-yloxy)-2-fluoro-5-methylphenyl)amino)pyrido[3,2-d]pyrimidin-6-yl)-8-azabicyclo[3.2.1]octan-8-yl)prop-2-en-1-one] | 0.115 µM | 0.151 µM | 4.77 µM | ≥ 5 µM |  |  |  | 
C=CC(=O)N1C[C@H]2CC[C@@H]1C[C@H]2c1ccc2ncnc(Nc3cc(C)c(Oc4cnc5c(c4)ncn5C)cc3F)c2n1 [Example 421] |  |  |  |  | 0.0943 µM | 0.217 µM | ≥ 10 µM | ≥ 5 µM
C=CC(=O)N1C[C@@H]2C[C@H]1CC[C@@H]2c1ccc2ncnc(Nc3ccc(Oc4ccc5c(c4)ncn5C)c(C)c3F)c2n1 [Example 379] |  |  |  |  | 0.0365 µM | 0.0292 µM | 4.21 µM | ≥ 5 µM

Second part, the molecule after the results:

IC50 ([1]; ErbB2 YVMA phosphorylation) | IC50 (ErbB2 WT; ErbB2 WT enzyme) | IC50 (EGFR; EGFR enzyme) | IC50 (EGFR wild type (EGFR WT); [2]) | IC50 [1, 3] | IC50 (ErbB2 WT; ErbB2 WT enzyme assay) | IC50 (EGFR; EGFR enzyme assay) | IC50 (EGFR wild type (EGFR WT); [4]) | SMILES
3.95 µM | 9.72 µM | ≥ 10 µM | ≥ 5 µM |  |  |  |  | C=CC(=O)N1CCC(c2nc3c(Nc4ccc(Oc5ccn6ncnc6c5)c(C)c4F)ncnc3cc2OC)CC1 [Example 155, 1-(4-(4-((4-([1,2,4]triazolo[1,5-a]pyridin-7-yloxy)-2-fluoro-3-methylphenyl)amino)-7-methoxypyrido[3,2-d]pyrimidin-6-yl)piperidin-1-yl)prop-2-en-1-one]
 |  |  |  | 0.0492 µM | 0.0097 µM | 1.12 µM | ≥ 5 µM | C=CC(=O)N1C[C@H]2CC[C@@H]1[C@H](c1ccc3ncnc(Nc4ccc(Oc5ccn6ncnc6c5)c(C)c4F)c3n1)C2 [Example 397]
 |  |  |  | 0.204 µM | 0.148 µM | ≥ 10 µM | ≥ 5 µM | C=CC(=O)N1[C@H](C)CN(c2ccc3ncnc(Nc4cc(C)c(Oc5ccn6ncnc6c5)cc4F)c3n2)C[C@@H]1C [Example 263]
 |  |  |  | 0.0302 µM | 0.0681 µM | 2.21 µM | 1.25 µM | C=CC(=O)N1C[C@@H]2C[C@H](c3ccc4ncnc(Nc5cc(C)c(Oc6ccn7ncnc7c6)cc5F)c4n3)C[C@H]1C2 [Example 390]
 |  |  |  | 0.556 µM | 0.127 µM | ≥ 10 µM | ≥ 5 µM | C=C(C)C(=O)N1CCN(c2ccc3ncnc(Nc4ccc(Oc5ccn6ncnc6c5)c(C)c4F)c3n2)CC1 [Example 364]
0.0678 µM | 0.018 µM | 0.447 µM | 3.07 µM |  |  |  |  | C=CC(=O)N1CC[C@@H]2CN(c3nc4c(Nc5ccc(Oc6ccn7ncnc7c6)c(C)c5F)ncnc4cc3OC)C[C@@H]21 [Example 154, 1-((3aR,6aR)-5-(4-((4-([1,2,4]triazolo[1,5-a]pyridin-7-yloxy)-2-fluoro-3-methylphenyl)amino)-7-methoxypyrido[3,2-d]pyrimidin-6-yl)hexahydropyrrolo[3,4-d]pyrrol-1(2H)-yl)prop-2-en-1-one]
0.0028 µM | 0.0098 µM | 0.358 µM | 0.0568 µM |  |  |  |  | C=CC(=O)N1CCN(c2ccc3ncnc(Nc4ccc(Oc5ccn6ncnc6c5)c(Cl)c4F)c3n2)C[C@H]1C [Example 91, (R)-1-(4-(4-((4-([1,2,4]triazolo[1,5-a]pyridin-7-yloxy)-3-chloro-2-fluorophenyl)amino)pyrido[3,2-d]pyrimidin-6-yl)-2-methylpiperazin-1-yl)prop-2-en-1-one]
 |  |  |  | 0.235 µM | 0.22 µM | ≥ 10 µM | ≥ 5 µM | C=CC(=O)N1C[C@H](c2ccc3ncnc(Nc4cc(C)c(Oc5ccn6ncnc6c5)cc4F)c3n2)C[C@H]1C (mixture of isomers) [Example 386]
0.0078 µM | 0.0113 µM | 0.3 µM | 0.111 µM |  |  |  |  | C=CC(=O)N1CCC(Oc2nc3c(Nc4ccc(Oc5ccn6ncnc6c5)c(C)c4F)ncnc3cc2OC)CC1 [Example 40, 1-(4-((4-((4-([1,2,4]triazolo[1,5-a]pyridin-7-yloxy)-2-fluoro-3-methylphenyl)amino)-7-methoxypyrido[3,2-d]pyrimidin-6-yl)oxy)piperidin-1-yl)prop-2-en-1-one]
 |  |  |  | 0.124 µM | 0.0594 µM | 5.55 µM | ≥ 5 µM | C=CC(=O)N1CC[C@H](c2ccc3ncnc(Nc4ccc(Oc5ccn6ncnc6c5)c(C)c4F)c3n2)CC1(C)C (racemic) [Example 314]
 |  |  |  | 0.0162 µM | 0.0803 µM | ≥ 10 µM | 0.562 µM | C=CC(=O)N1CCN(c2ccc3ncnc(Nc4ccc(Oc5ccn6ncnc6c5)c(Cl)c4F)c3n2)C[C@H]1C(C)(C)C [Example 311]
